Tests used:
Beta-glucuronidase [1] = molecular target: T1, Beta-glucuronidase (Escherichia coli (strain K12), UniProt P05804); assay: Inhibition of Escherichia coli beta-glucuronidase using p-nitrophenyl-beta-D-glucuronide as substrate
[2] = molecular target: T2, Beta-glucuronidase (Mus musculus) (UniProt P12265); assay: In vivo inhibition of beta-glucuronidase in OF1 mouse at 10 mg/kg, po after 8 days relative to control; assay type: functional, organism-based
T2 sequence (whole entry): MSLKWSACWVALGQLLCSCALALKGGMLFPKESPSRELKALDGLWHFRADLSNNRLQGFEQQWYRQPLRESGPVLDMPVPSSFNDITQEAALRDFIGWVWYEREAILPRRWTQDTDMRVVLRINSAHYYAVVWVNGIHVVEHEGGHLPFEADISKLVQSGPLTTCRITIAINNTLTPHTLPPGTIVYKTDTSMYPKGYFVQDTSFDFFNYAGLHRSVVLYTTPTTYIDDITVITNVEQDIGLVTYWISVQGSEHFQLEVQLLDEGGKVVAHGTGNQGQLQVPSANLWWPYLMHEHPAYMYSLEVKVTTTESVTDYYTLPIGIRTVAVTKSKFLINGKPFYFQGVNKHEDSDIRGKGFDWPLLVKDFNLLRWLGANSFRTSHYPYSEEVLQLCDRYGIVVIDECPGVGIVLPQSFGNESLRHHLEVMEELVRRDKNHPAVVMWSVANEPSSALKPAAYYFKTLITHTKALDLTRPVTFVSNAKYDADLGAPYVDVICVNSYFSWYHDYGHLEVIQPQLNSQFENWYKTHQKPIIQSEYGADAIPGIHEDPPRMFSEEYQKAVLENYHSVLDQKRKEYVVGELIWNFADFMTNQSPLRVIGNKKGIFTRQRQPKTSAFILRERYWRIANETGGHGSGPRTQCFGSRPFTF

[3] = Inhibition of bovine liver beta-glucuronidase using p-nitrophenyl-beta-d-glucuronide as substrate after 30 mins by spectrophotometric analysis; design: species or system Bos taurus
[4] = Inhibition of bovine liver beta-glucuronidase using p-nitrophenyl-beta-D-glucuronide as substrate after 30 mins; design: species or system Bos taurus
[5] = Inhibition of Escherichia coli K-12 beta-glucuronidase using PNPG as substrate preincubated for 5 mins followed by substrate addition measured after 30 mins
[6] = molecular target: T2, Beta-glucuronidase (Mus musculus); assay: In-vivo inhibition of ICR mouse beta-glucuronidase at 20 mg/kg, sc after 10 weeks relative to DMH alone; assay type: functional, organism-based
[7] = molecular target: T2, Beta-glucuronidase (Mus musculus); assay: In-vivo inhibition of ICR mouse beta-glucuronidase at 60 mg/kg, sc after 10 weeks relative to DMH alone; assay type: functional, organism-based
[8] = molecular target: T3, Beta-glucuronidase (Homo sapiens) (UniProt P08236); assay: Inhibition of beta-glucuronidase (unknown origin) at 1 mM relative to control
T3 sequence (whole entry): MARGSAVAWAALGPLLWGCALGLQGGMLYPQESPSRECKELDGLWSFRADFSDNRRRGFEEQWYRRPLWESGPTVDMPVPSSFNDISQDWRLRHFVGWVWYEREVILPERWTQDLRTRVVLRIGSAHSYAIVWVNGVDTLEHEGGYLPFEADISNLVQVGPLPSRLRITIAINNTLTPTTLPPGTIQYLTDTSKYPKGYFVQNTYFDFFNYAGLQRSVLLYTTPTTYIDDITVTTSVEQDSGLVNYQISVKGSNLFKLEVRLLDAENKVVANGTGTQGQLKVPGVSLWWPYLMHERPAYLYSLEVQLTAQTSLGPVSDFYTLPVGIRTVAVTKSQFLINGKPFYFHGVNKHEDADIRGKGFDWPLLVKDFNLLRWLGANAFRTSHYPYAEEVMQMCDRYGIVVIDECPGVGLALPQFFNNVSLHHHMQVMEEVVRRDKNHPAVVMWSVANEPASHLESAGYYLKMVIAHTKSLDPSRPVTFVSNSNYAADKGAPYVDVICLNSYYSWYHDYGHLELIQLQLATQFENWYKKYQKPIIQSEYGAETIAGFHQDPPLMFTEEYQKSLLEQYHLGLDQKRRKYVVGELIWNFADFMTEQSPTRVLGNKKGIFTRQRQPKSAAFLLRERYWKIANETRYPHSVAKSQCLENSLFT

[9] = Selectivity index, ratio of IC50 for beta-glucuronidase (unknown origin) to IC50 for Escherichia coli beta-glucuronidase
[10] = molecular target: T3, Beta-glucuronidase (Homo sapiens); conditions: 10 mg/ml
Beta-glucuronidase [11] = molecular target: T1, Beta-glucuronidase; assay: Inhibition of Escherichia coli beta-glucuronidase
[12] = molecular target: Beta-glucuronidase (Escherichia coli (strain K12)) (UniProt P05804); assay: Inhibition of Escherichia coli beta-glucuronidase at 1 mM relative to control
Beta-glucuronidase [13] = molecular target: T4, Beta-glucuronidase (Mus musculus, UniProt P12265); assay: In-vivo inhibition of beta-glucuronidase in BALB/CJ mouse at 10 ug administered as twice daily; assay type: functional
T4 sequence (P12265 whole entry): T2 sequence (whole entry)

[14] = Half life in BALB/CJ mouse at 10 ug administered as twice daily; assay type: ADME; conditions: in vivo
Beta-glucuronidase [15] = molecular target: T5, Beta-glucuronidase (Homo sapiens, UniProt P08236); assay: Inhibition of beta-glucuronidase (unknown origin) using p-nitrophenyl-beta-d-glucuronide as substrate after 30 mins
T5 sequence (P08236 whole entry): T3 sequence (whole entry)

T1 sequence (P05804 whole entry): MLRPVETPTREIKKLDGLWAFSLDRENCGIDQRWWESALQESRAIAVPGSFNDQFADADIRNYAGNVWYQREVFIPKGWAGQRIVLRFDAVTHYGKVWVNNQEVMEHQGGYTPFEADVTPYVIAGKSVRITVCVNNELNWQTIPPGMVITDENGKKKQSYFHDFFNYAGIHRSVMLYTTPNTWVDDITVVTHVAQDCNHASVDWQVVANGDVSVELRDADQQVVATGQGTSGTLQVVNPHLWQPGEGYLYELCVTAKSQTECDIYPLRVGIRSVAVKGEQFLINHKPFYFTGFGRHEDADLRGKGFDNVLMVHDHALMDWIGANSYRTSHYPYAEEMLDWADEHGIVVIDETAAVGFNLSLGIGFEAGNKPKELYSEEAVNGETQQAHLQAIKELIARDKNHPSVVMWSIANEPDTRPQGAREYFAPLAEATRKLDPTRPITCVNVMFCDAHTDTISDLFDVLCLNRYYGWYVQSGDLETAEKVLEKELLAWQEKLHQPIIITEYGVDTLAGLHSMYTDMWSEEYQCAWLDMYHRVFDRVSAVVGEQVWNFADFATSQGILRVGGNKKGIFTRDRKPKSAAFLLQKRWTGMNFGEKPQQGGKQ
Beta-glucuronidase (Escherichia coli (strain K12)), sequence (P05804 whole entry, looked up): as the sequence (P05804 whole entry) above

`CC1(C)CCC2(C(=O)O)CC[C@]3(C)C(=CC[C@@H]4[C@@]5(C)[C@H](O)C[C@H](O)[C@@](C)(CO)[C@@H]5CC[C@]43C)[C@@H]2C1` (stereo partly specified) showed an IC50 (Beta-glucuronidase [1]) of 63 µM.
Work on `C[C@]12C=CC(=O)C=C1CC[C@H]1[C@@H]3C[C@@H](O)[C@](O)(C(=O)CO)[C@@]3(C)C[C@H](O)[C@@]12F` yielded an inhibition [2] of 94.1%.
`Oc1ccccc1-c1nc2cc(Cl)cc(Cl)c2[nH]1` showed an IC50 [3] of 4.48 µM and an IC50 [4] of 4.48 µM.
For `O=c1cc(-c2ccc(O)c(O)c2)oc2cc(O)cc(O)c12` [LUTEOLIN], the IC50 [5] was 8.68 µM, the inhibition [6] was 14.9% and the inhibition [7] was 21.3%.
For `COc1ccc(C[C@@H]2CCC[C@@H]3[C@H](O)[C@@H](O)[C@H](CO)N23)cc1`, the inhibition [8] was < 50% and the Ratio IC50 [9] was 7.
In the case of `O=C(O)c1ccccc1O`, the inhibition [8] is reported as 82% and the inhibition [10] is reported as 92.9%.
Molecule `CC(=O)N[C@H]1[C@@H](O)[C@H](O)[C@H](CO)N[C@@H]1Cc1ccccc1` has an IC50 (Beta-glucuronidase [11]) of 90.7 µM and an inhibition [12] of 37.2%.
In the case of `CCOc1ccc(NC(=S)N(CCO)Cc2cc3cc(C)cc(C)c3[nH]c2=O)cc1`, the IC50 (Beta-glucuronidase [13]) is reported as 0.164 µM and the half-life [14] is reported as < 1 h.
In the case of `CC(=O)c1ccc(Nc2cc(C)nc3ccccc23)cc1`, the IC50 (Beta-glucuronidase [15]) is reported as 4 µM.
